From US20150175712A1, “ANTAGONIST TO AN ENZYME AND/OR A METABOLITE OF THE KYNURENINE PATHWAY” (ImmuSmol SAS, priority 2012, published 2015)
Entries after “also recorded” stand apart in the source; their conditions may differ.

Columns and labels:
tumor = conditions: Muller et al 2005; cited from earlier work
IDO = IDO (Homo sapiens, UniProt P14902); conditions: Pilotte et al 2012; cited from earlier work
[1] = Pilotte et al 2012; cited from earlier work
mastocytoma = conditions: Pilotte et al 2012; cited from earlier work
[2] = system: CD4 positive helper T cells; test: Proliferation of helper T cells activated with CD3/CD28 antibodies (CFSE); type: cell-based; conditions: 3HAA 100 μM, 96 hours
Procedure: FIG. 21: Suppression of anti-proliferative properties of 3HAA on helper T cells by a 3HAA monoclonal antibody (1B10). CD4 positive T cells were activated by anti CD3/CD28 antibodies cocktail and incubated for 96 hours with either vehicle, 3HAA at 100 μM or 3HAA (100 μM)+IgG anti 3HAA.
We evaluated the ability of the selected anti 3HAA antibody to block the suppressive effect of 3HAA on helper T cells activated with CD3/CD28 cocktail antibodies. Helper T cells were incubated with or without 3HAA and stained with CFSE (carboxyfluorescein succinimidyl ester). […] The selected anti 3HAA antibody is therefore able to inhibit, in vitro, the suppressive effect of 3HAA, e.g. on helper T cells.

IDO, sequence (P14902 whole entry, species assumed): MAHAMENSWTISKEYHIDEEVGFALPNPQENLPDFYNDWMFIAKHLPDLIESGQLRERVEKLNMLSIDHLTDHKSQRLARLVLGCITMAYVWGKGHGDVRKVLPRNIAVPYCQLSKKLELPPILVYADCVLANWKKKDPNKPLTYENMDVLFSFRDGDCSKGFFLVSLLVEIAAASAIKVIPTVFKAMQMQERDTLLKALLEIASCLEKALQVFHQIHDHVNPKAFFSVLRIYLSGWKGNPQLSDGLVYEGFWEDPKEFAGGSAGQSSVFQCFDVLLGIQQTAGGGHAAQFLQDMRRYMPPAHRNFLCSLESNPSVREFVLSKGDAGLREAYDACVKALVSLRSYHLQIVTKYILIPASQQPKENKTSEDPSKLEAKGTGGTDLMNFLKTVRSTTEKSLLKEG

Compound: Cn1cc(C[C@H](N)C(=O)O)c2ccccc21 [Clone 1MT, 1-Methyl Tryptophan]
- anti-tumor benefits when administered alone (tumor): weak

Compound: Fc1ccc2c(/C=C/c3nnn[nH]3)c[nH]c2c1 [LM-10, trans-6-Fluoro-3-[2-(1H-tetrazol-5-yl)vinyl]-1H-indole]
- IDO inhibition (IDO): does not inhibit
- solubility compared to 1MT [1]: higher
- benefits in experimental model of mastocytoma (mastocytoma): benefits

Compound: Nc1c(O)cccc1C(=O)O [Clone 3HAA, 3-Hydroxy Anthranilic Acid]
- Effect of 3HAA on proliferation of activated helper T cells [2]: blocked cell proliferation; also recorded: anergy of T cells was induced
